# Experimental data as given in article PMC9096165 (Frontiers in Pharmacology, 2022).
# Legend:
# [1] = tested on: panel of GPCRs, enzymes, ion channels, transporters, and nuclear receptors; assay: Safety screen off-target panel (Eurofins Cerep SafetyScreen44); assay type: binding; settings: tested at 10 μM; all the receptors studied
# Experimental: Selectivity assays were performed at Eurofins Cerep as a contract service. A summary of the protocol and the reference for the assays are listed on the Eurofins Cerep website at (https://www.eurofinsdiscoveryservices.com/catalogmanagement/viewItem/SafetyScreen44-Panel-Cerep/P270). The tested targets are listed below:
# GPCRs: A2A (agonist radioligand), α1A (antagonist radioligand), α2A (antagonist radioligand), β1 (agonist radioligand), β2 (agonist radioligand), BK1 (antagonist and agonist radioligand), BK2 (antagonist and agonist radioligand), CB1 (antagonist and agonist radioligand), CB2 (antagonist and agonist radioligand), CCK1 (CCKA) (agonist radioligand), D1 (antagonist radioligand), D2 (antagonist and agonist radioligand), D3 (antagonist and agonist radioligand), ETA (agonist radioligand), H1 (antagonist radioligand), H2 (antagonist radioligand), M1 (antagonist radioligand), M2 (antagonist and agonist radioligand), M3 (antagonist radioligand), NK1 (agonist radioligand), δ (DOP) (agonist radioligand), κ(KOP) (agonist radioligand), µ(MOP) (agonist radioligand), ORL1 (agonist radioligand), 5-HT1A (agonist radioligand), 5-HT1B (antagonist radioligand), 5-HT2A (agonist radioligand), 5-HT2B (agonist radioligand), and V1a (agonist radioligand). […]
# [2] = tested on: CYP-induced non-ulcerative IC rat model; assay: Mechanical nociceptive abdominal and hind paw test (Von Frey) in chronic CYP-induced non-ulcerative IC/BPS; assay type: in vivo, female Sprague–Dawley rats
# Experimental: CYP was administered to the animals by the intraperitoneal (i.p.) route (5 ml kg^−1) at the dosage of 75 mg kg^−1 for three times every third day to elicit chronic bladder irritation, as previously described ([Vizzard et al., 1996]).
# DF2755A was administered by oral gavage (2 ml kg^−1) at different doses and times before, during, or after CYP treatment, as specified hereunder. DF2755A dosages were chosen based on previous studies that described pharmacokinetics, pharmacodynamics, and pharmacological characterization of the compound ([Lopes et al., 2016]).
# Acute treatment: DF2755A was administered 24 h after the last CYP administration at 3, 7, 10, and 30 mg kg^−1.
# Chronic preventive treatment: DF2755A was administered 12 h before the first CYP administration (20 mg kg^−1) and then twice daily (7 mg kg^−1) for 7 days during IC development.
# Chronic therapeutic treatment: DF2755A was administered twice daily for 7 days at 7 mg kg^−1, starting from 24 h after the last CYP injection.
# On the day of the test, each rat was placed individually in a clear plastic testing box with a grid floor and allowed to acclimatize for at least 10 min. Peripheral sensitivity in response to mechanical stimuli was determined using Von Frey monofilaments (1-2-4-8-15-26-60–100 g; Ugo Basile, Comerio, Varese, Italy) applied in the lower abdominal area (close to the urinary bladder) and on both hind paw plantar surfaces (to evaluate referred pain).
# Each Von Frey monofilament was applied five times at the level of abdomen and three times at the level of each paw, in an ascending order of strength at interval of 5 s. A stimulus-induced response was considered positive when the paw was sharply withdrawn, paw licking occurred, or the animal flinched upon removal of the filament.
# Behavioral testing was performed at different times: • 1) before CYP administration, in order to acquire basal values; • 2) after CYP administration and before DF2755A treatment, in order to verify the pathology induction and acquire pre-treatment values; • 3) at different times after DF2755A treatment, in order to acquire post-treatment values, specifically at 2 and 18 h after the last treatment.
# TRPV1 = TRPV1 protein level in F11 cells (Western blotting); assay type: cell-based; settings: DF2755A 1 µM + CYP 100 nM
# From the text: (§1) For these experiments, cells at 18th passage were used.
# (§2) Triplicate samples were run for each gene.
# Control and treated F11 cells were collected and lysed in an ice-cold RIPA buffer containing protease and phosphatase inhibitor cocktail (Sigma-Aldrich, United States). The extracted proteins were quantified using BCA assay (Thermo, United States). NuPAGE lithium dodecyl sulfate sample buffer (Cat#NP007, Thermo, United States) and NuPAGE sample reducing agent (Cat#NP0004, Thermo, United States) were added to the samples and then put in the Thermoblock (Eppendorf, United Kingdom) at 75°C for 10 min. Protein lysates (30 μg) were separated on NuPAGE bis–tris glycine gradient precast gel (Cat#NP0321PK2, Invitrogen, United States) and electroblotted on a PVDF membrane (Cat#IPVH00010, Millipore, United States) using a semi-dry system (Thermo, United States). Non-specific binding sites were blocked by blocking solution (Cat#000105, Invitrogen, United States) for 15 min at RT. […] The relative densities of the immunoreactive bands were determined and normalized with respect to actin, using Fiji software. […]
# CXCL1 = CXCL1 mRNA expression in F11 cells (RT PCR); assay type: cell-based; settings: DF2755A 1 µM + CYP 100 nM
# From the text: as §1, §2
# CXCR1 [3] = assay: CXCR1 mRNA expression in F11 cells (RT PCR); assay type: cell-based; settings: DF2755A 1 µM + CYP 100 nM
# From the text: as §1, §2
# CXCR2 = CXCR2 mRNA expression in F11 cells (RT PCR); assay type: cell-based; settings: DF2755A 1 µM + CYP 100 nM
# From the text: as §1, §2
# CXCR1 [4] = tested on: CXCR1; set-up: method as in Lopes et al., 2016; settings: ref Lopes et al., 2016; cited from earlier work
# [5] = acute oral treatment 24 h after last CYP, abdomen and hind paw, 2 h after administration
# [6] = preventive: 20 mg kg^−1 12 h before first CYP, then 7 mg kg^−1 twice daily for 7 days p.o., 24 h after last CYP
# [7] = therapeutic 7 mg kg^−1 twice daily for 7 days, 3 and 7 days after treatment discontinuation
# [8] = therapeutic 7 mg kg^−1 twice daily for 7 days, 18 h after the last administration
smiles,measurement,setting,value
"C[C@H](C(=O)[O-])c1ccc(Nc2nc(C(F)(F)F)cs2)cc1.[Na+] [DF2755A, sodium (2S)-2-(4-{[4-(trifluoromethyl)-1,3-thiazol-2-yl]amino}phenyl)propanoate]",off-target effects in the safety screen assay,[1],neglectable effects
same,dose at which the antinociceptive effects reached a plateau,[2]; [5],7 mg/kg
same,dose from which the antinociceptive effect was statistically significant,[2]; [5],3 mg/kg
same,"decrease of mechanical stimulus threshold versus basal values, hind paws",[2]; [6],17%
same,"decrease of mechanical stimulus threshold versus basal values, low abdomen",[2]; [6],about 30%
same,duration of anti-hyperalgesic effect after treatment discontinuation,[2]; therapeutic 7 mg kg^−1 twice daily for 7 days,up to 7 days
same,"decrease of the threshold to mechanical stimulus, hind paw plantar surfaces",[2]; [7],40%
same,"reduction of the threshold to mechanical stimulus, low abdomen",[2]; [7],53%
same,"decrease of mechanical stimulus threshold, low abdomen",[2]; [8],55%
same,"decrease of the threshold to mechanical stimulus, hind paw plantar surfaces",[2]; [8],33%
same,"reduction of the threshold to mechanical stimuli, low abdomen","[2]; therapeutic: 7 mg kg^−1 twice daily for 7 days p.o. from 24 h after last CYP, 2 h after last treatment (Figure 4A)",24%
same,"decrease of the threshold to mechanical stimuli, hind paw plantar surfaces","[2]; therapeutic: 7 mg kg^−1 twice daily for 7 days p.o. from 24 h after last CYP, 2 h after last treatment (Figure 4B)",4%
same,TRPV1 protein level in CYP-exposed cells,TRPV1,restored to control expression
same,CXCL1 mRNA expression in CYP-exposed cells,CXCL1,restored the mRNA expression of all the targets to control values
same,CXCR1 mRNA expression in CYP-exposed cells,CXCR1 [3],restored the mRNA expression of all the targets to control values
same,CXCR2 mRNA expression in CYP-exposed cells,CXCR2,restored the mRNA expression of all the targets to control values
same,IC50,CXCR1 [4],4.2 nM
